PMC9571433, “Design, Synthesis, Anti-Varicella-Zoster and Antimicrobial Activity of (Isoxazolidin-3-yl)Phosphonate Conjugates of N1-Functionalised Quinazoline-2,4-Diones” (Molecules, 2022)
Converted amounts (≈) assume the structure as drawn. Like-named read-outs stand apart in the source and are kept apart here.

How the values were obtained:
[1] = system: human embryonic lung (HEL) cells; details: minimum cytotoxic concentration causing microscopically detectable alteration of cell morphology
[2] = system: P. aeruginosa ATCC 27853; assay: Broth microdilution MIC/MBC; details: Pseudomonas aeruginosa, ATCC27853, 24 h, read-out: MIC = MBC
[3] = system: Salmonella typhimurium TA98, TA100, TA1535 and TA1537 and Escherichia coli WP2 uvrA[pKM101]; assay: Ames mutagenicity assay (Ames MPF Penta I, bacterial reverse mutation test, with S9); assay type: cell-based; details: up to 0.625 mg/mL; with Aroclor 1254-induced rat liver S9
Protocol: The study was performed using a standard microplate Ames MPF^TM Penta I kit (Xenometrix, Allschwil, Switzerland), compliant with the OECD guideline […] [29] and the International Organization for Standardization. This test is a widely accepted short-term bacterial assay for the identification of substances that can produce genetic damage that leads to gene mutations. The bacterial strains used in this assay have various mutations that inactivate a gene involved in the synthesis of essential amino acids, either histidine (Salmonella typhimurium, TA98, TA100, TA1535 and TA1537 strains) or tryptophan (Escherichia coli, WP2uvrA[pKM101 strain), so they can only grow in the culture medium that is supplemented with that amino acid. The mutagenic potential of the sample was assessed after metabolic activation in the presence of Aroclor 1254-induced rat liver S9 (S9 Cofactor kit, Xenometrix, Allschwil, Switzerland). […]
Mutagenicity was determined using a standard microplate AMES MPF^TM PENTA I kit according to the manufacturer’s instructions (Xenometrix, Allschwil, Switzerland). […] The number of wells containing revertant colonies was counted for each dose and compared to a solvent (negative) control. […] The mutagenic potential of the sample was assessed after metabolic activation in the presence of Aroclor 1254-induced rat liver S9 (S9 Cofactor kit, Xenometrix, Allschwil, Switzerland). […]

[4] = system: A. brasiliensis ATCC 16404; assay: Broth microdilution MIC/MBC (antifungal); details: Aspergillus brasiliensis, ATCC16404, 72 h, read-out: MIC = MBC
[5] = system: TK– VZV 07-1 strain; assay: microbe, parasite or virus in culture; assay type: cell-based, varicella-zoster virus; details: Human alphaherpesvirus 3, HEL, read-out: Antiviral Activity EC50 TK– VZV Strain (07-1)
[6] = system: B. cereus PCM 1948; assay: Broth microdilution MIC/MBC; details: Bacillus cereus
[7] = system: E. coli ATCC 25922; assay: Broth microdilution MIC/MBC; details: Escherichia coli, ATCC25922, 24 h, read-out: MIC = MBC
[8] = system: C. albicans ATCC 10241; assay: Broth microdilution MIC/MBC (antifungal); details: Candida albicans, ATCC10241, read-out: MIC = MBC
[9] = system: S. aureus ATCC 2593; assay: Broth microdilution MIC/MBC; details: Staphylococcus aureus, ATCC2593, 24 h, read-out: MIC = MBC
[10] = system: E. faecalis ATCC 29212; assay: Broth microdilution MIC/MBC; details: Enterococcus faecalis, ATCC29212, 24 h
[11] = system: TK+ VZV OKA strain; assay: microbe, parasite or virus in culture; assay type: cell-based, varicella-zoster virus; details: Human alphaherpesvirus 3, HEL, read-out: Antiviral Activity EC50 TK+ VZV Strain (OKA)
[12] = system: varicella-zoster virus (VZV); design: method as in PMID 24906510, PMID 28763115, PMID 24219992; details: read-out: EC50 inhibition of replication of varicella-zoster virus (VZV); cited from earlier work
[13] = system: adenovirus-2; design: method as in PMID 28763115; details: read-out: EC50 towards adenovirus-2; cited from earlier work

CCOP(=O)(OCC)[C@H]1C[C@H](Cn2c(=O)c3ccccc3n(Cc3cccc(F)c3)c2=O)ON1C (relative stereo) [Diethyl trans-(5-((1-(3-fluorobenzyl)-2,4-dioxo-1,4-dihydroquinazolin-3(2H)-yl)methyl)-2-methylisoxazolidin-3-yl)phosphonate]
Cytotoxicity Cell Morphology MCC [1]: >100 μM | MIC [2]: 2500 µg/mL (≈ 4.95 mM) | Mutagenicity (Ames test) [3]: not being mutagenic | MIC [4]: 5000 µg/mL (≈ 9.89 mM) | EC50 [5]: 58.5 µM | MIC ([6]; PCM1948): 625 µg/mL (≈ 1.24 mM) | MIC ([6]; PCM1948, 24 h, read-out: MIC = MBC): 625 µg/mL (≈ 1.24 mM) | MIC [7]: 2500 µg/mL (≈ 4.95 mM) | MIC [8]: 2500 µg/mL (≈ 4.95 mM) | MIC [9]: 5000 µg/mL (≈ 9.89 mM) | MBC [10]: > 5000 µg/mL | MIC [10]: > 5000 µg/mL | EC50 [11]: 100 µM

O=C(c1ccc(F)cc1)n1c(=O)c2ccccc2n(Cc2cn(CCCOCc3ccccc3)nn2)c1=O [6a]
EC50 [12]: 6.8 to 8.2 µM

C#CCn1c(=O)n(C(=O)c2ccc(F)cc2)c(=O)c2ccccc21 [compound 5]
EC50 [13]: 8.3 µM
